pIC50: −log10 of the molar value.

Assay [1] deals with T1, recombinant human DGAT1 (hDGAT1) (Homo sapiens, UniProt O75907).
T1 construct: host or cells: Sf9 insect cells (baculovirus expression system), used as membrane preparation
T1 sequence (O75907 1-488): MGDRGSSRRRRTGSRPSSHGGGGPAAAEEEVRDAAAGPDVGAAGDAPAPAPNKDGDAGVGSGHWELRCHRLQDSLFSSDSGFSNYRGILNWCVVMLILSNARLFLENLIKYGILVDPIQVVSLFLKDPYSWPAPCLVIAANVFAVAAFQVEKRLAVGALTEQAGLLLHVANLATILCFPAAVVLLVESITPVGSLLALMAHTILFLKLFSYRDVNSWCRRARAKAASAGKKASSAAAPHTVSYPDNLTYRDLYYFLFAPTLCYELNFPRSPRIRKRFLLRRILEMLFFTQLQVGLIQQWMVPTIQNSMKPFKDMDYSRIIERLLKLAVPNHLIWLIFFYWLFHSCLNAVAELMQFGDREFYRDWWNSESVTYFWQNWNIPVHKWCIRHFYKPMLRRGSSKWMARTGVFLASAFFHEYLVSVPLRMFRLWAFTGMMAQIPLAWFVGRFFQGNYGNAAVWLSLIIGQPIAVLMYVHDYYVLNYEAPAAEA
The experiment in a line: Membrane-based recombinant hDGAT1 inhibitory activity using radiometry method (Method B). The format is biochemical. The settings on record: values marked *: Method B (radiometry); Sf9 membranes expressing hDGAT1. The procedure:
Measurement of Membrane-Based Recombinant hDGAT1 Inhibitory Activity Using Radiometry Method (Method B):
The determination of recombinant human DGAT1 (hDGAT1) activity was carried out using a Radiometry based assay system based on literature report [European Journal of Medicinal Chemistry (2012), August; 54:324-42]. In brief, baculovirus expression system (Sf9) membranes expressing hDGAT1 were employed for the membrane based assay.
Radiometry hDGAT1 assays were performed using 1 μg of the hDGAT1, pre-incubated with 100 μl of the assay buffer [100 mM Tris-HCl (pH 7.5), 250 mM sucrose, and 1.25 mg/ml fatty acid free BSA] containing a known concentration of the inhibitor and supplemented with 300 μM of 1,2-dioleoylglycerol. The hDGAT1 reaction was initiated following an addition of 16.8 nCi of [14C]-oleoyl CoA. The reaction was terminated after 30 minutes of incubation at 37° C. using 300 μl alkaline ethanol stop solution mix (AESSM) [12.5% of 100% non-denatured ethanol, 10% deionized water, 2.5% NaOH, and 75% stop solution (78.4% isopropanol, 19.6% n-heptane, 2% deionized water)]. The ^14C triglyceride formed in this reaction was extracted using 600 μl of heptane. 250 μl of this extracted heptane was added to scintillation fluid and subjected to radioactivity measurement.

For assay [2], the target named is T1, recombinant human DGAT1 (hDGAT1). As to the kind of experiment: Membrane-based recombinant hDGAT1 inhibitory activity using LCMS method (Method A). The following applies: Sf9 membranes expressing hDGAT1. The format is biochemical.
Assay [3] has as its target T2, hDGAT1 (Homo sapiens, UniProt O75907).
T2 construct: endogenous in cells; host or cells: HEK293H cells
T2 sequence (O75907 1-488): T1 sequence (O75907 1-488)
The experiment in a line: Cell based hDGAT1 inhibitory activity in HEK293H cells (13C-oleic acid to triolein, LC-MS). As for the experimental part: Measurement of Cell Based hDGAT1 Inhibitory Activity:
HEK293H cells were seeded in a 96-well poly-D-lysine plate at a density of 80000 cells per well. Following day, cells were washed with assay buffer-DMEM high glucose supplemented with 25 mM Hepes (pH7.5) carrying 0.25% fatty acid-free bovine serum. The cells were starved in assay buffer at 37° C./5% CO2 followed by removal of media and treatment with appropriate concentrations of the test compound at a final concentration of 0.2% DMSO for 20 min. 13C-Oleic acid pre-complexed with BSA (300 uM) was added and cells were incubated further at […]/5% CO2 for 120 min. The supernatant was removed and the cells were allowed to air dry briefly. The extraction solvent (90% isopropyl alcohol and 10% tetrahydrofuran with 20 nM of the internal standard [1,3-di-heptadecanoyl-2-(10Z-heptadecanoyl)-sn-glycerol-d5) was added to the cells, and allowed to shake at room temperature for 15 min. The extract was then transferred to glass vials for LC-MS analysis. An Applied Biosystems API3200 LC/MS system interfaced with a triplequadrupole mass spectrophotometer through a Turbo ion spray source was employed for the LC separation of the analytes using a Hi-Purity ADVANCE column eluted with 10 mM ammonium formate in IPA-H2O (80:20) at a flow rate of 0.4 mL/min. A characteristic in-source fragment ion m/z 639.7 formed from the precursor ion ^13C-54-triolein (m/z 956.8, ammonium adduct) at a collision energy of 30 and declustering potential 70 was monitored. IC50 values of the compounds were determined based on percent inhibition calculated on the basis of area ratio of product (TG) and internal standard (IS).

As usually defined, the pIC50 is the negative decadic logarithm of the IC50, by convention in mol/L. Turning to `O=C(O)CC1CC2(CCN(c3ccc(NC(=O)c4nnc(Nc5ccc(F)c(F)c5)o4)cn3)CC2)C1` [Example B32, 2-[7-[5-[[5-(3,4-difluoroanilino)-1,3,4-oxadiazole-2-carbonyl]amino]-2-pyridyl]-7-azaspiro[3.5]nonan-2-yl]acetic acid], the pIC50 in assay [1] was 8.16.

For `O=C(O)CC1CC2(CCN(c3ccc(NC(=O)c4nnc(Nc5ccccc5F)o4)cn3)CC2)C1` [Example B33, 2-[7-[5-[[5-(2-fluoroanilino)-1,3,4-oxadiazole-2-carbonyl]amino]-2-pyridyl]-7-azaspiro[3.5]nonan-2-yl]acetic acid], the pIC50 in assay [1] was 7.59.

As to `O=C(Nc1ccc(N2CCC3(CC2)CC(C(=O)O)C3)nc1)c1nnc(Nc2ccccc2)o1` [Example B34, 7-[5-[(5-anilino-1,3,4-oxadiazole-2-carbonyl)amino]-2-pyridyl]-7-azaspiro[3.5]nonane-2-carboxylic acid], the pIC50 in assay [1] is 7.62.

Consider `O=C(Nc1ccc(N2CCC3(CC2)CC(C(=O)O)C3)nc1)c1nnc(Nc2cccc(F)c2)o1` [Example B35, 7-[5-[[5-(3-fluoroanilino)-1,3,4-oxadiazole-2-carbonyl]amino]-2-pyridyl]-7-azaspiro[3.5]nonane-2-carboxylic acid], for which the pIC50 in assay [1] is 7.72.

In the case of `O=C(Nc1ccc(N2CCC3(CC2)CC(C(=O)O)C3)nc1)c1nnc(Nc2ccc(Cl)cc2)o1` [Example B36, 7-[5-[[5-(4-chloroanilino)-1,3,4-oxadiazole-2-carbonyl]amino]-2-pyridyl]-7-azaspiro[3.5]nonane-2-carboxylic acid], the pIC50 in assay [1] was 7.60.

On to `O=C(Nc1ccc(N2CCC3(CC2)CC(C(=O)O)C3)nc1)c1nnc(Nc2cccc(C(F)(F)F)c2)o1` [Example B37, 7-[5-[[5-[3-(trifluoromethyl)anilino]-1,3,4-oxadiazole-2-carbonyl]amino]-2-pyridyl]-7-azaspiro[3.5]nonane-2-carboxylic acid], for which, in assay [1], the pIC50 is 7.66.

On to `O=C(O)CC1CC2(CCN(c3ccc(NC(=O)c4nnc(Nc5ccccc5F)o4)cc3)CC2)C1` [Example B38, 2-[7-[4-[[5-(2-fluoroanilino)-1,3,4-oxadiazole-2-carbonyl]amino]phenyl]-7-azaspiro[3.5]nonan-2-yl]acetic acid], for which the pIC50 in assay [1] is 7.30.

Take `O=C(O)CC1CC2(CCN(c3ccc(NC(=O)c4nnc(Nc5ccccc5)o4)cc3)CC2)C1` [Example B39, 2-[7-[4-[(5-anilino-1,3,4-oxadiazole-2-carbonyl)amino]phenyl]-7-azaspiro[3.5]nonan-2-yl]acetic acid]: the pIC50 in assay [1] was 7.33.

Consider `O=C(O)CC1CC2(CCN(c3ccc(NC(=O)c4nnc(Nc5ccc(F)c(F)c5)o4)cc3)CC2)C1` [Example B40, 2-[7-[4-[[5-(3,4-difluoroanilino)-1,3,4-oxadiazole-2-carbonyl]amino]phenyl]-7-azaspiro[3.5]nonan-2-yl]acetic acid], for which the pIC50 in assay [1] was 7.70.

As to `Nc1ncnc2c1C(=O)N(c1ccc(C3CCC4(CCC(CC(=O)O)CC4)CC3)cc1)CCO2` (stereo not drawn) [Example H3, 2-[9-[4-(4-amino-5-oxo-7,8-dihydropyrimido[5,4-f][1,4]oxazepin-6-yl)phenyl]spiro[5.5]undecan-3-yl]acetic acid], the results for the pIC50 in assay [2] and in assay [3] were 7.38 and 7.82, respectively.

Take `Nc1ncnc2c1C(=O)N(c1ccc(C3CCC4(CC3)CC4C(=O)O)cc1)CCO2` (stereo not drawn) [Example I3, 6-[4-(4-amino-5-oxo-7,8-dihydropyrimido[5,4-f][1,4]oxazepin-6-yl)phenyl]spiro[2.5]octane-2-carboxylic acid]: the negative logarithm of the IC50 (pIC50) in assay [2] is 7.27; in assay [3], 7.59.

Turning to `Nc1ncnc2c1C(=O)N(c1ccc(C3CCC4(CC3)CC4C(=O)O)cc1)CCO2` (stereo not drawn) [Example I4, 6-[4-(4-amino-5-oxo-7,8-dihydropyrimido[5,4-f][1,4]oxazepin-6-yl)phenyl]spiro[2.5]octane-2-carboxylic acid], the pIC50 in assay [2] is 7.03; in assay [3], 7.46.

The values are drawn from patent US9550793B2, “Spirocyclic compounds, compositions and medicinal applications thereof” (Advinus Therapeutics Limited, priority 2012, dated 2017).
